Laboratory results from ChEMBL document CHEMBL1141625, “Potent, selective MCH-1 receptor antagonists” (Bioorg Med Chem Lett, 2008).

Experiments:
[1] = target: T1, Melanin-concentrating hormone receptor 1 (Homo sapiens, UniProt Q99705); assay: Binding affinity to MCHR1
[2] = target: T2, 5-hydroxytryptamine receptor 2C (Homo sapiens) (UniProt P28335); assay: Inhibition of 5HT2C receptor at 10 uM
T2 sequence (whole entry): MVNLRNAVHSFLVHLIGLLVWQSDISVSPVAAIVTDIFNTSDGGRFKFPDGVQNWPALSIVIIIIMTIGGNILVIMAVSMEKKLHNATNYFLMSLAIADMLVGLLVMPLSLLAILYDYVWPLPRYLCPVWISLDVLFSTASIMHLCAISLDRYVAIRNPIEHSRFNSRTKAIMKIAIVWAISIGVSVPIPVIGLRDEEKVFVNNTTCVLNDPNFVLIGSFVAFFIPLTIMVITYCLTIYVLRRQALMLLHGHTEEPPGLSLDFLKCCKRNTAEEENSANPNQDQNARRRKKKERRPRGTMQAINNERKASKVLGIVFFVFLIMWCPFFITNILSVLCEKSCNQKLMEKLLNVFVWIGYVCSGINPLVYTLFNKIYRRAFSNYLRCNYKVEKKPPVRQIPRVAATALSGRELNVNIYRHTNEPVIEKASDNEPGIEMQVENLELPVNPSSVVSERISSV

[3] = target: T3, 5-hydroxytryptamine receptor 1A (Homo sapiens) (UniProt P08908); assay: Inhibition of 5HT1A receptor at 10 uM
T3 sequence (whole entry): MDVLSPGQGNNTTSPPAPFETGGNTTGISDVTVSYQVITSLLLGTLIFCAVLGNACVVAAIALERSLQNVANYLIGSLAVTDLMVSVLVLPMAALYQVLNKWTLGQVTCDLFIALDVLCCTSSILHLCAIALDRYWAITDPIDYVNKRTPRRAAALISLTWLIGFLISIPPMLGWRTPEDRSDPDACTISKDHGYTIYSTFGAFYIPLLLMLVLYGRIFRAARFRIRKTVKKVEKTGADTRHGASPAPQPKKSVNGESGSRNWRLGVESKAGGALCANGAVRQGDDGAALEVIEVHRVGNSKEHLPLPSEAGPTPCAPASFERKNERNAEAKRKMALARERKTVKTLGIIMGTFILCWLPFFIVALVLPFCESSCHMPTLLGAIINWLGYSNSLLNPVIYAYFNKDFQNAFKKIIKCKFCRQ

[4] = target: T4, Alpha-2A adrenergic receptor (Homo sapiens) (UniProt P08913); assay: Inhibition of adrenergic alpha2A receptor at 10 uM
T4 sequence (whole entry): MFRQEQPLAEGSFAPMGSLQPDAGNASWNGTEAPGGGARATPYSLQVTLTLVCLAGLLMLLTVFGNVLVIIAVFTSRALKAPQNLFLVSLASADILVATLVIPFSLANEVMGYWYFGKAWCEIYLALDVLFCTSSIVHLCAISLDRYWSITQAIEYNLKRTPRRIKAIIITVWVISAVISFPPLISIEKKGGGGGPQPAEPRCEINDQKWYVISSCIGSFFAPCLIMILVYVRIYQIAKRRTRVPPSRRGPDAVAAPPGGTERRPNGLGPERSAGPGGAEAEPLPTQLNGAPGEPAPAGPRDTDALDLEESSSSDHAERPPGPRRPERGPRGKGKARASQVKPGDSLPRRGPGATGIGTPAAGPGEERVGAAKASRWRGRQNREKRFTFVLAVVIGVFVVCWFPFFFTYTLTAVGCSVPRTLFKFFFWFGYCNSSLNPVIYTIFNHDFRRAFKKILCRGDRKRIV

[5] = target: T5, Muscarinic acetylcholine receptor M2 (Homo sapiens) (UniProt P08172); assay: Inhibition of muscarinic M2 receptor at 10 uM
T5 sequence (whole entry): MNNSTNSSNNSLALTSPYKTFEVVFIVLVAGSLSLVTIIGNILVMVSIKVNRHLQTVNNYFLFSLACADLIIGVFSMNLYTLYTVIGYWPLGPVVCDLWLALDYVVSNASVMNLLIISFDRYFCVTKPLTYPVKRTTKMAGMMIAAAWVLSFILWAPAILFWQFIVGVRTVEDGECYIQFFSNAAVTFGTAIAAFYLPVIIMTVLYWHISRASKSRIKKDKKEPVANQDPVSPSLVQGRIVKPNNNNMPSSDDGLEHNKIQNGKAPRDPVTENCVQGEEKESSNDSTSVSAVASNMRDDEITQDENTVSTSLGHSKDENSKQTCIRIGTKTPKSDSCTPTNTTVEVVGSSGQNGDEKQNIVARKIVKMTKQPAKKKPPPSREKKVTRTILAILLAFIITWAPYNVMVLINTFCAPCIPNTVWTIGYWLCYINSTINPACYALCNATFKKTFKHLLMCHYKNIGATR

[6] = target: T1, Melanin-concentrating hormone receptor 1; assay: Antagonist activity at MCHR1 by cAMP assay; type: functional
[7] = target: D(3) dopamine receptor (Homo sapiens) (UniProt P35462); assay: Inhibition of dopamine D3 receptor at 10 uM
[8] = target: Sodium-dependent serotonin transporter (Homo sapiens) (UniProt P31645); assay: Inhibition of SERT at 10 uM
[9] = target: Sodium-dependent dopamine transporter (Homo sapiens) (UniProt Q01959); assay: Inhibition of DAT at 10 uM
[10] = target: Sodium-dependent noradrenaline transporter (Homo sapiens) (UniProt P23975); assay: Inhibition of NET at 10 uM
[11] = target: Somatostatin receptor type 5 (Homo sapiens) (UniProt P35346); assay: Inhibition of SST5 receptor at 10 uM
[12] = Clearance in Sprague-Dawley rat at 5 mg/kg, iv or 30 mg/kg, po; type: ADME, organism-based; details: in vivo
[13] = AUC in Sprague-Dawley rat plasma at 5 mg/kg, iv or 30 mg/kg, po; type: ADME, organism-based
[14] = Cmax in Sprague-Dawley rat at 5 mg/kg, iv or 30 mg/kg, po; type: ADME, organism-based; details: in vivo
[15] = Ratio of drug level in brain to plasma in Sprague-Dawley rat after 5 mins; type: ADME; details: brain and plasma, read-out: BPR
[16] = Oral bioavailability in Sprague-Dawley rat at 30 mg/kg; type: ADME, organism-based; details: in vivo
[17] = Volume of distribution at steady state in Sprague-Dawley rat at 5 mg/kg, iv or 30 mg/kg, po; type: ADME, organism-based; details: in vivo, read-out: Vdss
[18] = Half life in Sprague-Dawley rat at 5 mg/kg, iv or 30 mg/kg, po; type: ADME, organism-based; details: in vivo
[19] = system: Rattus norvegicus; assay: Reduction of food intake in high fat diet fed Sprague-Dawley rat at 30 mg/kg, po bid; type: functional; parameters: scale not given: the % may be the effect or the level left
[20] = system: Rattus norvegicus; assay: Reduction of body weight in high fat diet fed Sprague-Dawley rat at 30 mg/kg, po bid after 12 weeks; type: functional; parameters: scale not given: the % may be the effect or the level left
[21] = species on record: Rattus norvegicus; assay: Toxicity in high fat diet fed Sprague-Dawley rat after 12 weeks; type: organism-based; details: in vivo, 2016 h

Sodium-dependent serotonin transporter (Homo sapiens), sequence (P31645 whole entry, looked up): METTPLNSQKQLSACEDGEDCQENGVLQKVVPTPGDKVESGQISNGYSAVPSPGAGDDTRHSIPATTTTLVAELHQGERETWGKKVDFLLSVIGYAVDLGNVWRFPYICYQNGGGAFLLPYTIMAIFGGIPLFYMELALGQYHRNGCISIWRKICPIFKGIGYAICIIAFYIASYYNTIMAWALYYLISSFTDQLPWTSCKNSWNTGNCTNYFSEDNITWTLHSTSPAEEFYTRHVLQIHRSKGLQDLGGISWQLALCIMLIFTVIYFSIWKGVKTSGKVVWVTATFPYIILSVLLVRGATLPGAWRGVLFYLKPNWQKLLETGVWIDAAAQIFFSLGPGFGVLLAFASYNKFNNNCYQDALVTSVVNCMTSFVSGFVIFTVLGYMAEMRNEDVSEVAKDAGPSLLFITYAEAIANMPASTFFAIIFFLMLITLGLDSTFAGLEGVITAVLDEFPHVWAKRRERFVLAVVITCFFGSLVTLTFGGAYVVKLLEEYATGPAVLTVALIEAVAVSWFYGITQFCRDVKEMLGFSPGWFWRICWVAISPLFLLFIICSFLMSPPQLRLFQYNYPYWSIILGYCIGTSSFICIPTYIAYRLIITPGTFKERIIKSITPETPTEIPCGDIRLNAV
Somatostatin receptor type 5 (Homo sapiens), sequence (P35346 whole entry): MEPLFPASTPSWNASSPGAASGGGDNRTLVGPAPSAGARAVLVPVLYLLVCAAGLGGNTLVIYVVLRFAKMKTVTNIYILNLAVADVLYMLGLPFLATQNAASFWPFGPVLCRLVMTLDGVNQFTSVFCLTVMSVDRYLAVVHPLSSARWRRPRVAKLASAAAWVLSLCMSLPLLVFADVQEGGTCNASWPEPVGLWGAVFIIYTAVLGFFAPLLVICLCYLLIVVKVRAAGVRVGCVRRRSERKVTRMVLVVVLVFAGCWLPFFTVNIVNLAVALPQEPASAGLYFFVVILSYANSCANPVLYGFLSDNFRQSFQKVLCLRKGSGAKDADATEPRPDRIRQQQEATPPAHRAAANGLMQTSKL
D(3) dopamine receptor (Homo sapiens), sequence (P35462 whole entry): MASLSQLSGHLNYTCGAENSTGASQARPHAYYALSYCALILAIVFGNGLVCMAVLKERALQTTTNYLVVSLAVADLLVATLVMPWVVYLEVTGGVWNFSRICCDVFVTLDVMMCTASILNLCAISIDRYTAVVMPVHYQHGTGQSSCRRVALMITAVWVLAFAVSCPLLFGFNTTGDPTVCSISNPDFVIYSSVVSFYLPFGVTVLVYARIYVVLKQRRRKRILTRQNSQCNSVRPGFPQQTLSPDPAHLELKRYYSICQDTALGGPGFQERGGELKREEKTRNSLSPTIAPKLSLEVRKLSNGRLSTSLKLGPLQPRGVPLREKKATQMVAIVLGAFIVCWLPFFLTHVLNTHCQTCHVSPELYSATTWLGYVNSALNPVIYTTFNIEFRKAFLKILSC
T1 sequence (Q99705 whole entry): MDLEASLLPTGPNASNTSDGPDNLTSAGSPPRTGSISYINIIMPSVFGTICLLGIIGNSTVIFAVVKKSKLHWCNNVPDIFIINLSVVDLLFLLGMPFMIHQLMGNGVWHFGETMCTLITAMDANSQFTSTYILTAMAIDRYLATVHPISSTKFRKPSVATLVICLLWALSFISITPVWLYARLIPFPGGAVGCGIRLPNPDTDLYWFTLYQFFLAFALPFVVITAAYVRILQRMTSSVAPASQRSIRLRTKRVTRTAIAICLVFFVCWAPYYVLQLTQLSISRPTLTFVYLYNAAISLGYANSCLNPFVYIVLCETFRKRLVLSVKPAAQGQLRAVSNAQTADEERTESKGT
Sodium-dependent noradrenaline transporter (Homo sapiens), sequence (P23975 whole entry): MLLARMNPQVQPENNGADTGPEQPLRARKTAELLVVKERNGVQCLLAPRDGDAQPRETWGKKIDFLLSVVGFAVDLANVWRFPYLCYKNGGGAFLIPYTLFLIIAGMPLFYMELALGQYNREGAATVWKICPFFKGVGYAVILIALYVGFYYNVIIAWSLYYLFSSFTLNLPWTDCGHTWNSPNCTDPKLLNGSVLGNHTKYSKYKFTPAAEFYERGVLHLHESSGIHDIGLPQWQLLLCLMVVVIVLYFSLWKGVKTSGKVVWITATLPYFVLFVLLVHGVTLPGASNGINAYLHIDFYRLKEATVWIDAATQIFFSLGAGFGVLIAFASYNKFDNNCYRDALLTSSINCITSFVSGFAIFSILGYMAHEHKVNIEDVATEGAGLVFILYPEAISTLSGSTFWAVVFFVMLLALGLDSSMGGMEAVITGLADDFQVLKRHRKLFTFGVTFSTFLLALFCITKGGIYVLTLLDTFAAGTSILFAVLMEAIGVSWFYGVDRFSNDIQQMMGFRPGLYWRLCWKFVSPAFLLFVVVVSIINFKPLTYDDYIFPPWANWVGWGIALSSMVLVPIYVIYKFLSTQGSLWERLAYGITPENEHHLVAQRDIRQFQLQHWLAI
Sodium-dependent dopamine transporter (Homo sapiens), sequence (Q01959 whole entry): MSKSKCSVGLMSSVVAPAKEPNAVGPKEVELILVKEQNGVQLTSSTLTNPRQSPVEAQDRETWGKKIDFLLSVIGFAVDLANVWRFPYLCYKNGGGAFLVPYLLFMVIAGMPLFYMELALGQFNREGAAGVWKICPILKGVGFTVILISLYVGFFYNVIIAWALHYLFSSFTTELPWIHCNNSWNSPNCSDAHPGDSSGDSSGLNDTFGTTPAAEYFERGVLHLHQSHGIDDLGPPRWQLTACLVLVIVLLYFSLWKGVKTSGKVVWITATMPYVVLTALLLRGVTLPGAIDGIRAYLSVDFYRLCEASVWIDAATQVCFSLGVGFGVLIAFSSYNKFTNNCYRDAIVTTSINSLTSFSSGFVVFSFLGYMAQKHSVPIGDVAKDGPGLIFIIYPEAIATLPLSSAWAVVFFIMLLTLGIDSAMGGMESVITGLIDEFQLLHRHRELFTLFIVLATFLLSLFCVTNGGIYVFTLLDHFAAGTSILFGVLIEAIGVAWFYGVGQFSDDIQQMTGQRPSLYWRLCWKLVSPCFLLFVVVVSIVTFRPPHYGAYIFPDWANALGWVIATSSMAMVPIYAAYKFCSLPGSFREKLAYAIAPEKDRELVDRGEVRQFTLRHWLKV

| Structure (SMILES) | Ki [1] [nM] | inhibition [2] [%] | inhibition [3] [%] | inhibition [4] [%] | inhibition [5] [%] | EC50 [6] [nM] | Efficacy [6] [%] | inhibition [7] [%] | inhibition [8] [%] | inhibition [9] [%] | inhibition [10] [%] | inhibition [11] [%] | further results |
| --- | --- | --- | --- | --- | --- | --- | --- | --- | --- | --- | --- | --- | --- |
| CO[C@@H]1CN(C[C@H]2Cc3ccc(C#N)cc3C2)CC[C@H]1n1c(C(C)(C)O)nc2cc(C)c(F)cc21 | 0.5 |  |  |  |  |  |  |  |  |  |  |  |  |
| CO[C@@H]1CN(C[C@H]2Cc3ccc(Br)cc3C2)CC[C@H]1n1c(C(C)(C)O)nc2cc(C)ccc21 | 10 | 14 | 17 | 34 | -8 | 30 | 98 | 79 | 28 | 68 | 77 |  |  |
| CO[C@@H]1CN(C[C@H]2Cc3ccc(Br)cc3C2)CC[C@H]1n1c(C)nc2cc(C)ccc21 | 5 |  | 31 | 81 | 48 | 20 | 92 | 84 | 59 | 80 | 69 | 54 |  |
| COC(=O)Nc1ccc2c(c1)C[C@@H](CN1CC[C@@H](n3c(C)nc4cc(C)ccc43)[C@H](OC)C1)C2 | 20 | 8 | 29 | 14 | 22 | 20 | 81 | 28 | 95 | 65 | 64 | 10 |  |
| CO[C@@H]1CN(CC2Cc3ccccc3C2)CC[C@H]1n1c(C)nc2cc(C)ccc21 | 47 | -8 | 63 | 33 | 6 | 69 | 90 | 40 | 14 | 8 | 24 | -2 |  |
| CO[C@@H]1CN(C[C@@H]2Cc3ccc(NC(=O)C(C)C)cc3C2)CC[C@H]1n1c(C)nc2cc(C)ccc21 | 31 | 3 |  | 7 | 3 | 40 | 74 |  | 32 | 10 | 1 |  | clearance [12]: 36.5 mL/min/kg; AUC [13]: 8520 ng·h/mL; Cmax [14]: 1280 ng/mL; Kp at 5 min [15]: 0.06; bioavailability [16]: 61%; Vd [17]: 14 L/kg; half-life [18]: 2.5 h |
| Cc1ccc2c(c1)nc(C)n2C1CCN(CCCc2cccc(NC(=O)C(C)C)c2)CC1 | 25 | 4 |  | 37 | 18 | 175 | 96 |  | 83 | 23 | 57 | 13 |  |
| CO[C@H]1CN(CCCc2cccc(NC(=O)C3CC3)c2)CC[C@@H]1n1c(C)nc2cc(C)ccc21 | 5.2 |  |  | 15 | 11 | 20 | 82 | 52 | 67 | 32 | 61 | 16 |  |
| CO[C@@H]1CN(C[C@H]2Cc3ccc(C#N)cc3C2)CC[C@H]1n1c(C(C)(C)O)nc2cc(C)ccc21 | 3 |  | 14 | 12 | 3 | 17 | 85 | 22 | 6 | -6 | 12 | 23 | clearance [12]: 49.5 mL/min/kg; Activity [19]: 28%; AUC [13]: 4730 ng·h/mL; Cmax [14]: 1300 ng/mL; Kp at 5 min [15]: 0.9; Activity [20]: -0.7%; Activity [21]: Non-toxic; bioavailability [16]: 47%; Vd [17]: 3.6 L/kg; half-life [18]: 1.9 h |
